{
  "source": "patent EP4692086A1",
  "about": "“ANTICOAGULATION REVERSAL AGENT, AND PREPARATION METHOD THEREFOR AND USE THEREOF” (Shaanxi Micot Pharmaceutical Technology Co., Ltd., priority 2023, dated 2024)",
  "assay_type_in_all_cases": "in vivo, SD rats",
  "key": {"[1]": {"tested_on": "heparin-induced rats", "experiment": "Tail transection hemorrhage model, antagonizing heparin", "details": "bleeding loss over 15 min", "experimental": "(§1) Tail transection hemorrhage model: […] The anaesthetized animals were placed on an electric heating blanket preheated to 37°C. Jugular vein was isolated and cannulated within 30 min. Normal saline or drug was injected via the jugular vein. 5 min after injection, a transection was made 5 mm away from the tip of the rat's tail. Bleeding loss (BL) over 15 min was recorded. Temperatures including room temperature and water bath temperature were strictly controlled throughout the experiment."}, "[2]": {"tested_on": "enoxaparin-induced rats", "experiment": "Tail transection hemorrhage model, antagonizing enoxaparin", "details": "bleeding loss over 15 min", "experimental": "as §1"}, "[3]": {"tested_on": "warfarin-induced rats", "experiment": "Hepatic laceration hemorrhage model, antagonizing warfarin", "details": "for Hepatic Laceration Bleeding Loss: jugular vein injection, bleeding loss over 30 min; for Inhibition Rate: hepatic laceration bleeding loss, vs Vehicle (warfarin)", "experimental": "Hepatic laceration hemorrhage model: In all groups except for Control group and Compound 1 20 mg/kg+N.S. control group, SD rats were administered warfarin by oral gavage once daily for 3 consecutive days. 30 min after the final administration, the rats were injected with 10% chloral hydrate via intraperitoneal injection. The anaesthetized animals were placed on an electric heating blanket preheated to 37°C. Jugular vein was isolated and cannulated within 30 min. Aspirin was administered and 30 min later, test substances were injected via the jugular vein. 5 min after injection, the abdominal cavity was opened, and 3 standard incisions, each with a length of 1 cm and a depth of 2 mm, were made on the liver. Blood flowing from the liver was absorbed with pre-weighed dry cotton, and bleeding loss (BL) over 30 min was recorded."}, "[4]": {"tested_on": "heparin-induced rats", "experiment": "Hepatic laceration hemorrhage model, antagonizing heparin", "details": "for Hepatic Laceration Bleeding Loss: bleeding loss over 30 min"}, "[5]": {"tested_on": "warfarin-induced rats", "experiment": "Tail transection hemorrhage model, antagonizing warfarin (bleeding loss and WBCT)", "details": "for Tail Transection Bleeding Loss: jugular vein injection, bleeding loss over 15 min", "experimental": "Tail transection hemorrhage model: In all groups except for Control group and Compound 1 20 mg/kg+N.S. control group, SD rats were administered warfarin by oral gavage once daily for 3 consecutive days. 30 min after the final administration, the rats were injected with 10% chloral hydrate via intraperitoneal injection. The anaesthetized animals were placed on an electric heating blanket preheated to 37°C. Jugular vein was isolated and cannulated within 30 min. Normal saline or drug was injected via the jugular vein. 5 min after injection, a transection was made 5 mm away from the tip of the rat's tail. Bleeding loss (BL) over 15 min was recorded. At the end of the experiment, blood was collected from the abdominal cavity and WBCT was measured. Temperatures including room temperature and water bath temperature were strictly controlled throughout the experiment."}, "[6]": {"tested_on": "enoxaparin-induced rats", "experiment": "Hepatic laceration hemorrhage model, antagonizing enoxaparin", "details": "for Hepatic Laceration Bleeding Loss: bleeding loss over 30 min; for Inhibition Rate: hepatic laceration bleeding loss, vs Vehicle (enoxaparin)"}, "[7]": {"details": "10 mg/kg+heparin, listed as compound 1"}, "[8]": {"details": "5 mg/kg+enoxaparin, listed as compound 1"}, "[9]": {"details": "20 mg/kg+warfarin, blood collected at the end of the experiment"}, "[10]": {"details": "Rattus norvegicus, read-out: Inhibition Rate"}},
  "data": [
    {"smiles": "N=C(N)NCCCC(N)C(=O)NCCCn1c(=O)c2c(ncn2CCCNC(=O)C(N)CCCNC(=N)N)n(CCCNC(=O)C(N)CCCNC(=N)N)c1=O", "note": "(stereo not drawn) [Compound 1]", "values": [
      {"measurement": "Tail Transection Bleeding Loss", "setting": "[1]; 5 mg/kg+heparin", "value": "38.3625 ± 12.6991", "unit": "mg"},
      {"measurement": "Tail Transection Bleeding Loss", "setting": "[1]; 10 mg/kg+heparin", "value": "19.9375 ± 22.3215", "unit": "mg"},
      {"measurement": "Tail Transection Bleeding Loss", "setting": "[1]; [7]", "value": "significantly reduced"},
      {"measurement": "Tail Transection Bleeding Loss", "setting": "[1]; 20 mg/kg+heparin", "value": "12.1125 ± 6.6714", "unit": "mg"},
      {"measurement": "Tail Transection Bleeding Loss", "setting": "[2]; 0.2 mg/kg+enoxaparin", "value": "0.0903 ± 0.0426", "unit": "g"},
      {"measurement": "Tail Transection Bleeding Loss", "setting": "[2]; 1 mg/kg+enoxaparin", "value": "0.0302 ± 0.0147", "unit": "g"},
      {"measurement": "Tail Transection Bleeding Loss", "setting": "[2]; 5 mg/kg+enoxaparin", "value": "0.0158 ± 0.0083", "unit": "g"},
      {"measurement": "Tail Transection Bleeding Loss", "setting": "[2]; [8]", "value": "superior to the 20 mg/kg PER977 group"},
      {"measurement": "Hepatic Laceration Bleeding Loss", "setting": "[3]; 5 mg/kg+warfarin", "value": "0.3029 ± 0.1189", "unit": "g"},
      {"measurement": "Hepatic Laceration Bleeding Loss", "setting": "[3]; 10 mg/kg+warfarin", "value": "0.2379 ± 0.1613", "unit": "g"},
      {"measurement": "inhibited hepatic laceration bleeding loss", "setting": "[3]; 20 mg/kg+warfarin, compared to the Vehicle group", "value": 72.1, "unit": "%"},
      {"measurement": "Hepatic Laceration Bleeding Loss", "setting": "[3]; 20 mg/kg+warfarin", "value": "0.0784 ± 0.0346", "unit": "g"},
      {"measurement": "Inhibition Rate", "setting": "[3]; 5 mg/kg+warfarin", "value": -7.9},
      {"measurement": "Inhibition Rate", "setting": "[3]; 10 mg/kg+warfarin", "value": 15.3},
      {"measurement": "Inhibition Rate", "setting": "[3]; 20 mg/kg+warfarin", "value": 72.1},
      {"measurement": "Hepatic Laceration Bleeding Loss", "setting": "[4]; 5 mg/kg+heparin", "value": "0.3217 ± 0.0919", "unit": "g"},
      {"measurement": "inhibition rate for hepatic laceration bleeding loss", "setting": "[4]; 10 mg/kg compound 1 (so in the source)+heparin, compared to the Vehicle group", "value": 88.9, "unit": "%"},
      {"measurement": "Hepatic Laceration Bleeding Loss", "setting": "[4]; 10 mg/kg+heparin", "value": "0.1794+0.0966 g"},
      {"measurement": "Hepatic Laceration Bleeding Loss", "setting": "[4]; [7]", "value": "significantly reduced"},
      {"measurement": "Hepatic Laceration Bleeding Loss", "setting": "[4]; 20 mg/kg+heparin", "value": "0.0560+0.0408 g"},
      {"measurement": "WBCT", "setting": "[5]; 20 mg/kg+N.S. (no warfarin), compared to the Control group", "value": "no significant changes"},
      {"measurement": "WBCT", "setting": "[5]; [9]", "value": "490 ± 99", "unit": "s"},
      {"measurement": "WBCT", "setting": "[5]; 20 mg/kg+warfarin, blood collected at the end of the experiment, listed as compound 1", "value": "significantly shortened"},
      {"measurement": "Tail Transection Bleeding Loss", "setting": "[5]; 20 mg/kg+warfarin", "value": "0.0143 ± 0.0108", "unit": "g"},
      {"measurement": "Tail Transection Bleeding Loss", "setting": "[5]; 20 mg/kg+warfarin, listed as compound 1", "value": "significantly reduced"},
      {"measurement": "Hepatic Laceration Bleeding Loss", "setting": "[6]; 0.2 mg/kg+enoxaparin", "value": "0.5253 ± 0.2034", "unit": "g"},
      {"measurement": "Hepatic Laceration Bleeding Loss", "setting": "[6]; 1 mg/kg+enoxaparin", "value": "0.1674 ± 0.0734", "unit": "g"},
      {"measurement": "Hepatic Laceration Bleeding Loss", "setting": "[6]; 1 mg/kg+enoxaparin, listed as compound 1", "value": "significantly reduced"},
      {"measurement": "Hepatic Laceration Bleeding Loss", "setting": "[6]; 5 mg/kg+enoxaparin", "value": "0.0490 ± 0.0184", "unit": "g"},
      {"measurement": "Hepatic Laceration Bleeding Loss", "setting": "[6]; [8]", "value": "significantly reduced"},
      {"measurement": "Inhibition Rate", "setting": "[6]; 0.2 mg/kg+enoxaparin", "value": -17.1, "unit": "%"},
      {"measurement": "Inhibition Rate", "setting": "[6]; 1 mg/kg+enoxaparin", "value": 62.7, "unit": "%"},
      {"measurement": "Inhibition Rate", "setting": "[6]; 5 mg/kg+enoxaparin", "value": 89.1, "unit": "%"}
    ]},
    {"smiles": "N=C(N)NCCC[C@H](N)C(=O)NCCCN1CCN(CCCNC(=O)[C@@H](N)CCCNC(=N)N)CC1", "note": "[PER977, diarginine piperazine, reference compound]", "values": [
      {"measurement": "Tail Transection Bleeding Loss", "setting": "[1]; 20 mg/kg+heparin", "value": "17.9000 ± 11.6004", "unit": "mg"},
      {"measurement": "Tail Transection Bleeding Loss", "setting": "[2]; 20 mg/kg+enoxaparin", "value": "0.0228 ± 0.0155", "unit": "g"},
      {"measurement": "Hepatic Laceration Bleeding Loss", "setting": "[3]; 20 mg/kg+warfarin", "value": "0.0874 ± 0.0292", "unit": "g"},
      {"measurement": "inhibition at 20 mg/kg", "setting": "[3]; [10]", "value": 68.9, "unit": "%"},
      {"measurement": "Hepatic Laceration Bleeding Loss", "setting": "[4]; 20 mg/kg+heparin", "value": "0.0511 ± 0.0444", "unit": "g"},
      {"measurement": "WBCT", "setting": "[5]; [9]", "value": "471 ± 101", "unit": "s"},
      {"measurement": "Tail Transection Bleeding Loss", "setting": "[5]; 20 mg/kg+warfarin", "value": "0.0276 ± 0.0123", "unit": "g"},
      {"measurement": "Hepatic Laceration Bleeding Loss", "setting": "[6]; 20 mg/kg+enoxaparin", "value": "0.0420 ± 0.0244", "unit": "g"},
      {"measurement": "inhibition at 20 mg/kg", "setting": "[6]; [10]", "value": 90.6, "unit": "%"}
    ]}
  ]
}
